Data published in patent publication US20160362416A1, “ANTIVIRAL COMPOUNDS” (Gilead Sciences, Inc., priority 2012, published 2016).

Key:
[1] = tested on: Y93N in genotype 1a NS5A replicon; experiment: Resistance mutant replicon assay, genotype 1a NS5A Y93N; assay type: cell-based, HCV; details: Hepatitis C virus, read-out: 1a Y93N (nM)
How it was run: (§1)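 Cured-51 cells transfected with mutant Pi-RLuc replicon RNA; 72 h compound; lysis, Renilla luciferase; EC50 by non-linear regression.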

[2] = tested on: stable HCV 1a RLuc replicon cells (genotype 1a H77 replicon); experiment: HCV genotype 1a RLuc replicon reporter assay; assay type: cell-based; details: Hepatitis C virus; stable genotype 1a H77 RLuc replicon cells, 72 hours
[3] = tested on: Y93H in genotype 3a NS5A replicon; experiment: Resistance mutant replicon assay, genotype 3a NS5A Y93H; assay type: cell-based, HCV; details: Hepatitis C virus, read-out: 3a Y93H (nM)
How it was run: as §1

[4] = tested on: Q30R in genotype 1a NS5A replicon; experiment: Resistance mutant replicon assay, genotype 1a NS5A Q30R; assay type: cell-based, HCV; details: Hepatitis C virus, read-out: 1a Q30R (nM)
Protocol: (§2) Evaluation of cell-based anti-HCV activity: Antiviral potency (EC50) was determined using a Renilla luciferase (RLuc)-based HCV replicon reporter assay. To perform the assay for genotype 1 and 2a JFH-1, stable HCV 1a RLuc replicon cells (harboring a dicistronic genotype 1a H77 replicon that encodes a RLuc reporter), stable HCV lb RLuc replicon cells (harboring a dicistronic genotype 1b Conl replicon that encodes a RLuc reporter), or stable HCV 2a JFH-1 Rluc replicon cells (harboring a dicistronic genotype 2a JFH-1 replicon that encodes a RLuc reporter; with L31 present in NS5A) were dispensed into 384-well plates for EC50 assays. To perform the assay for genotype 2a (with M31 present in NS5A) or 2b, NS5A chimeric genotype 2a JFH-1 replicons that encodes a RLuc-Neo reporter and either genotype 2a J6 strain NS5A gene or genotype 2b MD2b-1 strain NS5A gene (both with M31 present) respectively, were either transiently transfected (t) into Huh-Lunet cells or were established as stably replicating replicon cells (s) is provided. Either cells were dispensed into 384-well plates for EC50 assays. To perform the assay for genotype 3 and 4, NS5A chimeric genotype 1b Conl replicons that encodes a Pi-RLuc reporter and either genotype 3a S52 strain NS5A gene or genotype 4a ED43 strain NS5A gene respectively, were transiently transfected (t) into Huh-Lunet cells, which were subsequently dispensed into 384-well plates. Compounds were dissolved in DMSO at a concentration of 10 mM and diluted in DMSO either manually or using an automated pipeting instrument. Serially 3-fold diluted compounds were either manually mixed with cell culture media and added to the seeded cells or directly added to the cells using an automated instrument. DMSO was used as a negative (solvent; no inhibition) control, and the protease inhibitor ITMN-191 was included at a concentration >100×EC50 as a positive control. 72 hours later, cells were lysed and Renilla luciferase activity quantified as recommended by the manufacturer (Promega-Madison, Wis.). Non-linear regression was performed to calculate EC50 values.
(§3) To determine the antiviral potency (EC50) against resistance mutants, resistance mutations, including M28T, Q30R, Q30H, Q30E, L31M, Y93C, Y93H, and Y93N in genotype 1a NS5A, Y93H and L31V/Y93H in genotype 1b NS5A, and Y93H for in genotype 3a NS5A, were introduced individually into either 1a Pi-Rluc or 1b Pi-Rluc replicons by site directed mutagenesis. Replicon RNA of each resistant mutant was transiently transfected into Huh-7-derived cured-51 cells and antiviral potency was determined on these transfected cells as described above.

[5] = tested on: NS5A chimeric genotype 1b Con1 replicon with genotype 4a ED43 strain NS5A gene; experiment: HCV genotype 4a NS5A chimeric replicon assay; assay type: cell-based; details: Hepatitis C virus, 72 h, read-out: 4a (s) (nM)
[6] = tested on: Y93H in genotype 1a NS5A replicon; experiment: Resistance mutant replicon assay, genotype 1a NS5A Y93H; assay type: cell-based, HCV; details: Hepatitis C virus, read-out: 1a Y93H (nM)
How it was run: as §1

[7] = tested on: stable HCV 1b RLuc replicon cells (genotype 1b Con1 replicon); experiment: HCV genotype 1b RLuc replicon reporter assay; assay type: cell-based; details: Hepatitis C virus; stable genotype 1b Con1 RLuc replicon cells, 72 hours
How it was run: (§4)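 EC50 derived by non-linear regression of Renilla luciferase signal measured in lysates 72 h after adding 3-fold serial compound dilutions. Replicons: stable genotype 1b Con1 cells; transient Huh-Lunet transfections of NS5A chimeras—4a ED43 or 3a S52 in Con1, 2b MD2b-1 (M31) in JFH-1.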

[8] = IV and PO single dose pharmacokinetic studies in SD rats; assay type: in vivo; details: Sprague-Dawley, rat, plasma, male SD rats, IV infusion 1 mg/kg, oral gavage 2 mg/kg, read-out: Rat % F
Protocol: IV and PO Single Dose Pharmacokinetic Studies in SD Rats: The pharmacokinetics of selected compounds was characterized in male Sprague-Dawley (SD) rats (250-300 g). In this study, two groups of naïve purebred SD rats (N=3 per group, fasted over night) received the selected compound either as an intravenous (IV) infusion (1 mg/kg over 30 minutes) via the jugular vein or by oral gavage (2 mg/kg). The intravenous (IV) dosing vehicle was 5% ethanol, 35% polyethylene glycol 400 (PEG 400) and 60% water pH 2.0. The oral dosing vehicle was 5% ethanol, 55% PEG 400 and 40% citrate buffer pH 2.2.
Serial blood samples (approximately 0.3 mL each) were collected from jugular vein or other suitable vein at specified time points. For the IV infusion group, the blood samples were collected predose and at 0.25, 0.48, 0.58, 0.75, 1.5, 3, 6, 8, 12 and 24 hours after the start of infusion. For the oral group, the blood samples were collected predose and at 0.25, 0.50, 1, 2, 4, 6, 8, 12 and 24 hours after dosing. The blood samples were collected into Vacutainer™ tubes containing EDTA-K3 as the anti-coagulant and were centrifuged at approximately 4° C. to obtain plasma. The plasma samples were stored at −20° C. until analysis by LC/MS/MS.
A bioanalytical method utilizing high performance liquid chromatography coupled to tandem mass spectrometry (LC/MS/MS) was developed for analysis of the selected compound in rat plasma. Detection was performed using selected reaction monitoring (SRM); Ions representing the precursor (M+H)^+ species was selected in quadrupole 1 (Q1) and collided with argon gas in the collision cell (Q2) to generate specific product ion, which was subsequently monitored by quadrupole 3 (Q3). Standard curve and quality control samples were prepared in male rat plasma and processed in the same way as the test samples to generate quantitative data.
Pharmacokinetic parameters were generated using non-compartmental pharmacokinetic analysis (Phoenix WinNonlin, version 6.3). Values below the lower limit of quantification (LLOQ) were assigned a value of zero if predose and treated as missing thereafter. Area under the curve (AUC) was calculated using the linear trapezoidal rule. The oral bioavailability (% F) was determined by comparison of the area under the curve (AUC) of the compound and/or a metabolite generated in plasma following oral administration to that generated following intravenous administration.

[9] = tested on: L31V/Y93H in genotype 1b NS5A replicon; experiment: Resistance mutant replicon assay, genotype 1b NS5A L31V/Y93H; assay type: cell-based, HCV; details: Hepatitis C virus, read-out: 1b L31V/Y93H (nM)
Protocol: as §2, §3

[10] = tested on: Q30E in genotype 1a NS5A replicon; experiment: Resistance mutant replicon assay, genotype 1a NS5A Q30E; assay type: cell-based, HCV; details: Hepatitis C virus, read-out: 1a Q30E (nM)
How it was run: as §1

[11] = tested on: NS5A chimeric genotype 2a JFH-1 replicon with genotype 2a J6 strain NS5A gene (M31); experiment: HCV genotype 2a J6 NS5A chimeric replicon assay, transient (t); assay type: cell-based; details: Hepatitis C virus, 72 h, read-out: 2a J6 (t) (nM)
[12] = tested on: NS5A chimeric genotype 2a JFH-1 replicon with genotype 2b MD2b-1 strain NS5A gene (M31); experiment: HCV genotype 2b NS5A chimeric replicon assay, transient (t); assay type: cell-based; details: Hepatitis C virus, 72 h, read-out: 2b (t) (nM)
How it was run: as §4

[13] = tested on: stable HCV 2a JFH-1 Rluc replicon cells (L31 present in NS5A); experiment: HCV genotype 2a JFH-1 RLuc replicon reporter assay; assay type: cell-based; details: Hepatitis C virus, 72 h, read-out: 2a JFH (nM)
[14] = tested on: NS5A chimeric genotype 1b Con1 replicon with genotype 3a S52 strain NS5A gene; experiment: HCV genotype 3a NS5A chimeric replicon assay; assay type: cell-based; details: Hepatitis C virus, 72 h, read-out: 3a (nM)
How it was run: as §4

[15] = tested on: NS5A chimeric genotype 2a JFH-1 replicon with genotype 2b MD2b-1 strain NS5A gene (M31); experiment: HCV genotype 2b NS5A chimeric replicon assay, stable (s); assay type: cell-based; details: Hepatitis C virus, 72 h, read-out: 2b (s) (nM)

Row | Structure (SMILES) | EC50 [1] [nM] | EC50 [2] [nM] | EC50 [3] [nM] | EC50 [4] [nM] | EC50 [5] [nM] | EC50 [6] [nM] | EC50 [7] [nM] | bioavailability [8] [%] | EC50 [9] [nM] | EC50 [10] [nM] | EC50 [11] [nM] | EC50 [12] [nM] | EC50 [13] [nM] | EC50 [14] [nM] | EC50 [15] [nM]
1 | CC[C@H](C)[C@H](NC(=O)OC)C(=O)N1[C@H](c2ncc(-c3ccc4c(c3)COc3cc5c(ccc6nc([C@@H]7CC[C@H](C)N7C(=O)[C@@H](NC(=O)OC)C7CCOCC7)[nH]c65)cc3-4)[nH]2)C[C@@H]2CCC[C@@H]21 [Comp 9, reference compound] | 10.6 | 0.028 | 40.9 | 0.26 | 40.9 | 3.5 | 0.034 | 0.571 | – | – | – | – | – | – | –
2 | COC(=O)N[C@H](C(=O)N1[C@@H](C)CC[C@H]1c1ncc(-c2ccc3c(c2)COc2cc4c(ccc5nc([C@@H]6C[C@@H]7CCC[C@@H]7N6C(=O)[C@@H](NC(=O)OC)C6CCOCC6)[nH]c54)cc2-3)[nH]1)C(C)C [Comp 10, reference compound] | 3.74 | 0.015 | 21.8 | 0.123 | 21.8 | – | 0.024 | – | 0.024 | 0.716 | 0.024 | – | – | – | –
3 | COC(=O)N[C@H](C(=O)N1[C@@H](C)CC[C@H]1c1ncc(-c2ccc3c(c2)COc2cc4c(ccc5nc([C@@H]6CCCN6C(=O)[C@@H](NC(=O)OC)C6CCOCC6)[nH]c54)cc2-3)[nH]1)C(C)C [Comp 14, reference compound] | 1.75 | 0.025 | – | 1.2 | – | 3.66 | 0.025 | 6.88 | 0.13 | – | 0.053 | 0.036 | 0.01 | – | –
4 | COC(=O)N[C@H](C(=O)N1[C@@H](C)CC[C@H]1c1ncc(-c2ccc3c(c2)COc2cc4c(ccc5nc([C@@H]6CC[C@H](C)N6C(=O)[C@@H](NC(=O)OC)[C@H]6CCCOC6)[nH]c54)cc2-3)[nH]1)C(C)C [Example AI, Methyl{(1S)-2-[(2S,5S)-2-methyl-5-(9-{2-[(2S,5S)-1-{(2S)-2-[(methoxycarbonyl)amino]-3-methylbutanoyl}-5-methylpyrrolidin-2-yl]-1H-imidazol-5-yl}-1,11-dihydroisochromeno[4′,3′:6,7]naphtho[1,2-d]imidazol-2-yl)pyrrolidin-1-yl]-2-oxo-1-[(3R)-tetrahydro-2H-pyran-3-yl]ethyl}carbamate] | 4.05 | 0.014 | 2.84 | 0.208 | 0.012 | – | 0.018 | – | 21.4 | 2.11 | 0.041 | – | 0.017 | 0.028 | 0.058
5 | COC(=O)N[C@H](C(=O)N1[C@@H](C)CC[C@H]1c1ncc(-c2ccc3c(c2)COc2cc4c(ccc5nc([C@@H]6CC[C@H](C)N6C(=O)[C@@H](NC(=O)OC)[C@@H]6CCCOC6)[nH]c54)cc2-3)[nH]1)C(C)C [Example AJ, Methyl{(1S)-2-[(2S,5S)-2-methyl-5-(9-{2-[(2S,5S)-1-{(2S)-2-[(methoxycarbonyl)amino]-3-methylbutanoyl}-5-methylpyrrolidin-2-yl]-1H-imidazol-5-yl}-1,11-dihydroisochromeno[4′,3′:6,7]naphtho[1,2-d]imidazol-2-yl)pyrrolidin-1-yl]-2-oxo-1-[(3S)-tetrahydro-2H-pyran-3-yl]ethyl}carbamate] | 4.3 | 0.016 | 3.73 | 0.16 | 0.018 | – | 0.021 | – | 44 | 2.7 | 0.059 | – | 0.019 | 0.035 | 0.057
